Consider 15 molecules from PubChem BioAssay AID488797 (The Scripps Research Institute Molecular Screening Center, 2010).

For this experiment, the target named is Female germline-specific tumor suppressor gld-1 (Caenorhabditis elegans) (UniProt Q17339). Kind of experiment: potency of GLD-1/TGE RNA binding inhibitors, late-stage follow-up, biochemical, fluorescence polarization, IC50, powder samples (AID 488797). The conditions noted are these: GLD-1 / FL-TGE RNA binding. Background: In fluorescence polarisation assays a small probe gives low polarisation when free and higher when bound to something large.

The source made the active and inactive calls.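 Rule for the calls: active = half-inhibiting concentration IC50 at or below 10 µM; inactive = IC50 above 10 µM.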 Where only a bound is given, the exact number is not on record here.

Female germline-specific tumor suppressor gld-1 (Caenorhabditis elegans), sequence (Q17339 whole entry, looked up): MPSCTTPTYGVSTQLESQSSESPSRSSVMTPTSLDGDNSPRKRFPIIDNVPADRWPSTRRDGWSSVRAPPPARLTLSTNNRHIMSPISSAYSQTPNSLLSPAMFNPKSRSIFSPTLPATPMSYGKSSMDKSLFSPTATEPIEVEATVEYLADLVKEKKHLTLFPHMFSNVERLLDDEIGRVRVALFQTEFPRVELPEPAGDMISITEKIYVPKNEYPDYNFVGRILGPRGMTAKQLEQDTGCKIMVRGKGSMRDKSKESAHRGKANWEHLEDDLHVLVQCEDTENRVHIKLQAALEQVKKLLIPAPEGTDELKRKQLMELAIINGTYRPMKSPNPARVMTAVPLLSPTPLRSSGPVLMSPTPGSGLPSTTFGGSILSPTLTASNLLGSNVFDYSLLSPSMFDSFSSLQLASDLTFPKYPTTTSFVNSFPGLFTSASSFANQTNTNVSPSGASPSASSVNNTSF

What is called IC50 is the concentration needed to halve the response being measured. Regarding `O=c1[nH]c(=O)c2nc3ccccc3nc2[nH]1`, the IC50 entry is “inactive”.

Take `Nc1c(O)ccc2c1C(=O)c1ccccc1C2=O`: the IC50 is 4.17 µM.

Turning to `O=c1[nH]c2cc3ccccc3cc2nc1C(F)(F)F`, the IC50 is 2.5 µM.

Consider `O=C(CN1C(=O)NC2(CCCCC2)C1=O)Oc1ccc2c(C(F)(F)F)cc(=O)oc2c1`, for which the IC50 is 5.62 µM.

Turning to `CC1=CC(=O)c2c(O)ccc(O)c2C1=O`, the half-inhibitory concentration (IC50) was 5.67 µM.

Turning to `CCOC(=O)c1c(C)oc2c1cc(NS(=O)(=O)c1ccc(C)cc1)c1ccccc12`, the IC50 is > 59.6 µM (inactive).

Turning to `Cc1ccc(S(=O)(=O)Nc2cc3c(C(=O)Nc4ccccc4)c(C)oc3c3ccccc23)c(C)c1`, the half-maximal inhibitory concentration (IC50) is 1.14 µM.

Take `CCN(CC)S(=O)(=O)c1ccc(N2CCCC2)c(NS(=O)(=O)c2ccc(F)cc2)c1`: the IC50 result is “inactive”.

Regarding `O=C1C2=C(SCCS2)C(=O)N1CCCO`, the concentration for half-maximal inhibition (IC50) is 4.73 µM.

In the case of `COc1ccc(C=Nc2c(-c3ccco3)nc3ccccn23)cc1OC`, the IC50 is > 59.6 µM (inactive).

As for `CCCCn1c(=O)[nH]c2nc3cc(NC(C)=O)ccc3nc2c1=O`, the half-maximal inhibitory concentration (IC50) is 2.62 µM.

As for `COc1ccc(/C=C(\CC(=O)O)c2nc3ccccc3s2)cc1O`, the IC50 is 2.17 µM.

With `Nc1ccc2nonc2c1[N+](=O)[O-]`, the IC50 was > 59.6 µM (inactive).

`Nc1ccc(O)c2c1C(=O)c1ccccc1C2=O`: the IC50 is 3 µM.

As to `Cc1ccc(S(=O)(=O)Nc2cc3c(C(=O)Nc4ccccc4)c(C)oc3c3ccccc23)cc1`, the IC50 is 1.66 µM.
